From patent US11220524B2, “Selective inhibitors of protein arginine methyltransferase 5 (PRMT5)” (PRELUDE THERAPEUTICS, INCORPORATED, priority 2017, dated 2022)
Structures can show the parent of a compound that is named as a salt. Where two headings read alike, the source gives them in different places.

Biological target: PRMT5/MEP50 complex (Homo sapiens (Human), UniProt O14744)
Assay: Biochemical assay: PRMT5/MEP50 methylation of histone H2A with 3H-SAM, filter plate scintillation
Description: Biochemical Assay Protocol
Compounds were solubilized, and 3-fold diluted in 100% DMSO. […] Standard reactions were performed in a total volume of […] assay buffer, with histone H2A (5 μM final) as substrate. To this was added the PRMT5/MEP50 complex diluted to provide a final assay concentration of 5 nM and the compounds were allowed to preincubate for 15 to 20 minutes at room temperature. The reaction was initiated by adding S-[3H-methyl]-adenosyl-L-methionine (PerkinElmer) to final concentration of 1 μM. Following a 60 minutes incubation at 30° C., the reaction was stopped by adding 100 μL of 20% TCA. Each reaction was spotted onto filter plate (MultiScreen FB Filter Plate, Millipore), and washed 5 times with PBS buffer, Scintillation fluid was added to the filter plate and read in a scintillation counter. IC50 values were determined by fitting the data to the standard 4 parameters with Hill Slope using GraphPad Prism software.

[1] = biochemical potency, read-out: PRTMT5/MEP50 IC50
[2] = histone H2A 5 μM, SAM 1 μM, enzyme 5 nM, read-out: PRMT5/MEP50 IC50

PRMT5/MEP50 complex, sequence (O14744 whole entry): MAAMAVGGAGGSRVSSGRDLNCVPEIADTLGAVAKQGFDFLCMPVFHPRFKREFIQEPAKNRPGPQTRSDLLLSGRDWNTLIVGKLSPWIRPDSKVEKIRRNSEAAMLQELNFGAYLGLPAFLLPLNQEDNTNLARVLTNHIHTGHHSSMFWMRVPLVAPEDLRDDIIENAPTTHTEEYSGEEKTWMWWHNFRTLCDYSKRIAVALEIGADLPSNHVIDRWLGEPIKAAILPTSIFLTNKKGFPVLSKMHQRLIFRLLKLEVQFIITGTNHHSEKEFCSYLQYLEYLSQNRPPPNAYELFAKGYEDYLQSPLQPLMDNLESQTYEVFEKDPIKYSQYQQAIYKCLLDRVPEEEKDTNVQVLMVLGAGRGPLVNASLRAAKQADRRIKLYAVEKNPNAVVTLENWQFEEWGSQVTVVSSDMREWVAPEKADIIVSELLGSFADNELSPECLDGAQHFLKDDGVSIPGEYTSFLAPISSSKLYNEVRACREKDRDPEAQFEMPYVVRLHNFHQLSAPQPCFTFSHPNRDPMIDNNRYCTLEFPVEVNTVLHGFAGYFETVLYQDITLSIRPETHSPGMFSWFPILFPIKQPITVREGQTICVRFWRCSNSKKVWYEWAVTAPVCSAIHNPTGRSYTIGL
PRMT5/MEP50 complex, sequence (Q9BQA1 whole entry partner): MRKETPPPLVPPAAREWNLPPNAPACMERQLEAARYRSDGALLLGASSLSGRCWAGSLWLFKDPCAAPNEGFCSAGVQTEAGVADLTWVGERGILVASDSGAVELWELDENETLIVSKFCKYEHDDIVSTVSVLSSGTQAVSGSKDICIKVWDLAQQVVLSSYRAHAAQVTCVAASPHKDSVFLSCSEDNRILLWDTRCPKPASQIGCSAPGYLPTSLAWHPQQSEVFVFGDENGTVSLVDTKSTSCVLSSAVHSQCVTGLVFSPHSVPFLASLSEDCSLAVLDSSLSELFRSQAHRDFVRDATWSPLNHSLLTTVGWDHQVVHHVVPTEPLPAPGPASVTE

IC50 [1] [nM] | IC50 [2] [nM] | SMILES
1160 | – | N/N=c1/nc[nH]c2c1c(F)cn2[C@@H]1C[C@H]([C@H](O)c2ccc(Cl)cc2)[C@@H](O)[C@H]1O [Example 28-B, 7-[(1R,2S,3R,4R)-4-[(S)-(4-chlorophenyl)-hydroxy-methyl]-2,3-dihydroxy-cyclopentyl]-5-fluoro-H-pyrrolo[2,3-d]pyrimidin-4-one hydrazone hydrochloride]
543 | – | CO/N=c1/nc[nH]c2c1ccn2[C@@H]1C[C@H]([C@H](O)c2ccc(Cl)cc2)[C@@H](O)[C@H]1O [Example 49-B, (1S,2R,3R,5R)-3-[(S)-(4-chlorophenyl)-hydroxy-methyl]-5-[(4Z)-4-methoxyimino-1H-pyrrolo[2,3-d]pyrimidin-7-yl]cyclopentane-1,2-diol hydrochloride]
37 | – | O/N=c1\nc[nH]c2c1ccn2[C@@H]1C[C@H]([C@H](O)c2ccc(F)c(F)c2)[C@@H](O)[C@H]1O [Example 88-B, 7-((1R,2S,3R,4R)-4-((S)-(3,4-difluorophenyl)(hydroxy)methyl)-2,3-dihydroxycyclopentyl)-1,7-dihydro-4H-pyrrolo[2,3-d]pyrimidin-4-one oxime]
95 | – | CO/N=c1\nc[nH]c2c1ccn2[C@@H]1C[C@H]([C@H](O)c2ccc(F)c(F)c2)[C@@H](O)[C@H]1O [Example 89-B, 7-((1R,2S,3R,4R)-4-((S)-(3,4-difluorophenyl)(hydroxy)methyl)-2,3-dihydroxycyclopentyl)-1,7-dihydro-4H-pyrrolo[2,3-d]pyrimidin-4-one O-methyl oxime]
– | 920 | CCO/N=c1\[nH]cnc2c1ncn2[C@@H]1O[C@H]([C@](C)(O)c2ccc(Cl)c(Cl)c2)[C@@H](O)[C@H]1O [Example 93, (2S,3S,4R,5R)-2-[(1R)-Example 931-(3,4-dichlorophenyl)-1-hydroxy-ethyl]-5-[(6Z)-6-ethoxyimino-1H-purin-9-yl]tetrahydrofuran-3,4-diol]
2.3 | – | O/N=c1/nc[nH]c2c1ccn2[C@@H]1C[C@H]([C@H](O)c2ccc(Cl)c(Cl)c2)[C@@H](O)[C@H]1O [Example 93-B, 7-((1R,2S,3R,4R)-4-((S)-(3,4-dichlorophenyl)(hydroxy)methyl)-2,3-dihydroxycyclopentyl)-1,7-dihydro-4H-pyrrolo[2,3-d]pyrimidin-4-one oxime]
– | 1620 | CO/N=c1\[nH]cnc2c1ncn2[C@@H]1O[C@H]([C@](C)(O)c2ccc(Cl)c(C)c2)[C@@H](O)[C@H]1O [Example 94, (2S,3S,4R,5R)-2-[(1R)-1-(4-chloro-3-methylphenyl)-1-hydroxy-ethyl]-5-[(6Z)-6-methoxyimino-1H-purin-9-yl]tetrahydrofuran-3,4-diol]
– | 699 | CCO/N=c1\[nH]cnc2c1ncn2[C@@H]1O[C@H]([C@](C)(O)c2ccc(Cl)c(C)c2)[C@@H](O)[C@H]1O [Example 95, (2S,3S,4R,5R)-2-[(1R)-1-(4-chloro-3-methylphenyl)-1-hydroxy-ethyl]-5-[(6Z)-6-ethoxyimino-1H-purin-9-yl]tetrahydrofuran-3,4-diol]
– | 42 | CCO/N=c1\nc[nH]c2c1ccn2[C@@H]1O[C@H]([C@H](O)c2ccc(Cl)cc2)[C@@H](O)[C@H]1O [Example 97, 7-((2R,3R,4S,5R)-5-((R)-(4-chlorophenyl)(hydroxy)methyl)-3,4-dihydroxytetrahydrofuran-2-yl)-1,7-dihydro-4H-pyrrolo[2,3-d]pyrimidin-4-one O-ethyl oxime]
– | 1770 | CO/N=c1\nc[nH]c2c1c(CCO)cn2[C@@H]1O[C@H]([C@H](O)c2ccc(Cl)c(Cl)c2)[C@@H](O)[C@H]1O [Example 100, 7-((2R,3R,4S,5R)-5-((R)-(3,4-dichlorophenyl)(hydroxy)methyl)-3,4-dihydroxytetrahydrofuran-2-yl)-5-(2-hydroxyethyl)-1,5-dihydro-4H-7l4-pyrrolo[2,3-d]pyrimidin-4-one O-methyl oxime]
